Data from US7081353B2, “Drug susceptibility measurement method and apparatus thereof” (Jikei University School of Medicine, priority 2000, dated 2006).

System: S. epidermidis (Staphilococcus epidermidis)
Assay: MIC by conventional measurement method, S. epidermidis
Format: cell-based
Details: 106 cfu/ml, necessary time 18 hours
Source text: The drug susceptibility measurement results are obtained by employing S. epidermidis (Staphilococcus epidermidis), […] (Genus Enterococcus) as bacteria, and by determining an amount of bacteria to be 10^6 cfu/ml. And, PCG (Penicillin G), IPM (Imipenem), MINO (Minocycline), EM (Erythromycin), OFLX (Ofloxacin), ST (Sulfamethoxazole Trimethoprim), […]) are employed as drug.

(a) MIC values (minimum inhibitory interfering concentration) obtained by a conventional measurement method	SMILES
≦0.12 g g/ml	CC[C@H]1OC(=O)[C@H](C)[C@@H](O[C@H]2C[C@@](C)(OC)[C@@H](O)[C@H](C)O2)[C@H](C)[C@@H](O[C@@H]2O[C@H](C)C[C@H](N(C)C)[C@H]2O)[C@](C)(O)C[C@@H](C)C(=O)[C@H](C)[C@@H](O)[C@]1(C)O [EM, Erythromycin]
≦1 g g/ml	CC1COc2c(N3CCN(C)CC3)c(F)cc3c(=O)c(C(=O)O)cn1c23 (centres unmarked) [OFLX, Ofloxacin]
≦1 g g/ml	C[C@@H](O)[C@H]1C(=O)N2C(C(=O)O)=C(SCCN=CN)C[C@H]12 [IPM, Imipenem]
≦0.12 g g/ml	CN(C)c1ccc(O)c2c1C[C@H]1C[C@H]3[C@H](N(C)C)C(O)=C(C(N)=O)C(=O)[C@@]3(O)C(O)=C1C2=O [MINO, Minocycline]

SMILES	(a) MIC values (minimum inhibitory interfering concentration) obtained by a conventional measurement method
CN[C@H](CC(C)C)C(=O)N[C@H]1C(=O)N[C@@H](CC(N)=O)C(=O)N[C@H]2C(=O)N[C@H]3C(=O)N[C@H](C(=O)N[C@H](C(=O)O)c4cc(O)cc(O)c4-c4cc3ccc4O)[C@H](O)c3ccc(c(Cl)c3)Oc3cc2cc(c3O[C@@H]2O[C@H](CO)[C@@H](O)[C@H](O)[C@H]2O[C@H]2C[C@](C)(N)[C@H](O)[C@H](C)O2)Oc2ccc(cc2Cl)[C@H]1O [VCM, Vancomycin]	≦1 g g/ml
